The text below walks through data of ChEMBL document CHEMBL1136631, “Bis-sulfonamides as endothelin receptor antagonists” (Bioorg Med Chem Lett, 2003).

The target in test [1] is T1, Endothelin receptor type B (Homo sapiens, UniProt P24530).
T1 sequence (P24530 whole entry): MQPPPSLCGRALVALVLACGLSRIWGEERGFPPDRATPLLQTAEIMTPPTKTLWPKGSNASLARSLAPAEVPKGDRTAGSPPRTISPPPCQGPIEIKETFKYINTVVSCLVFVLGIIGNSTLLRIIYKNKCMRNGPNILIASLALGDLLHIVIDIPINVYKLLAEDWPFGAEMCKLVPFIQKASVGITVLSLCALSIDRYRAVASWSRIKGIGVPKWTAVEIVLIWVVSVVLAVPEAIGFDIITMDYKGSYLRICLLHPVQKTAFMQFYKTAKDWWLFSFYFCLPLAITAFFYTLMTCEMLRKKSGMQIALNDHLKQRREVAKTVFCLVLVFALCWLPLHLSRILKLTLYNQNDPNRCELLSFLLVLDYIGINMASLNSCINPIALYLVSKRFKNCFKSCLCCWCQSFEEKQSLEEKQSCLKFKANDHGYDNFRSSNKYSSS
Briefly: Inhibitory concentration required against [125I]ET1 binding to membranes of CHO cells expressing human ETB receptor. The class given is cell membranes.

The target of test [2] is T2, Endothelin-1 receptor (Homo sapiens, UniProt P25101).
T2 sequence (P25101 whole entry): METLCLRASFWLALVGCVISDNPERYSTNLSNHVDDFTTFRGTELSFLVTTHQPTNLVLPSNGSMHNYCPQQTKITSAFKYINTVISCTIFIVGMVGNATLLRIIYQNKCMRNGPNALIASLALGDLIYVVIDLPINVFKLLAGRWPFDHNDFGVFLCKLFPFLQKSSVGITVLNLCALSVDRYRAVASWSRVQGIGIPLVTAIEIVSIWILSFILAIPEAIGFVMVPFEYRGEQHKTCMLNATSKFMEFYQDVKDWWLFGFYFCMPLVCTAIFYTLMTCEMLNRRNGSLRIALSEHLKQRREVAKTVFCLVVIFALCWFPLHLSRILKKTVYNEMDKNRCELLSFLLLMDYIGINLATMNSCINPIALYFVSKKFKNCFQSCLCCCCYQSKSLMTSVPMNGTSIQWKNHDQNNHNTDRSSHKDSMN
Briefly: Inhibitory concentration required against [125I]ET1 binding to membranes of CHO cells expressing human ETA receptor. The class given is cell membranes.

Test [3] concerns the target T3, Endothelin receptor type B (Rattus norvegicus, UniProt P21451).
T3 sequence (P21451 whole entry): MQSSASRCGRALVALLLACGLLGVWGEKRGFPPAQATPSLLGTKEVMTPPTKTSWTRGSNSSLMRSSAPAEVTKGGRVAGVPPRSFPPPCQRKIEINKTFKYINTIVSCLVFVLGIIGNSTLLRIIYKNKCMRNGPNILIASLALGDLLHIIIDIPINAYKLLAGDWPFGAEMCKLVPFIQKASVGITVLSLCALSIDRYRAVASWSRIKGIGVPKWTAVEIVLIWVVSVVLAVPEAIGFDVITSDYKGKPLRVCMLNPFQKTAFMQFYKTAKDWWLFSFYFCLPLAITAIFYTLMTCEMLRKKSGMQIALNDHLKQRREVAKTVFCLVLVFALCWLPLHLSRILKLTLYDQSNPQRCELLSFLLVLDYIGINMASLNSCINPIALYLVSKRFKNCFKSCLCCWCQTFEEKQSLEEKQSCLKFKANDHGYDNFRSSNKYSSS
Briefly: In vitro inhibitory potency for preventing sarafotoxin S6c induced constriction of rat tracheal rings (ETB receptor). It counts as functional, tissue-based, Trachea. Conditions: read-out: pA2 (converted).

Test [4] concerns the target T4, Endothelin-1 receptor (Rattus norvegicus, UniProt P26684).
T4 sequence (P26684 whole entry): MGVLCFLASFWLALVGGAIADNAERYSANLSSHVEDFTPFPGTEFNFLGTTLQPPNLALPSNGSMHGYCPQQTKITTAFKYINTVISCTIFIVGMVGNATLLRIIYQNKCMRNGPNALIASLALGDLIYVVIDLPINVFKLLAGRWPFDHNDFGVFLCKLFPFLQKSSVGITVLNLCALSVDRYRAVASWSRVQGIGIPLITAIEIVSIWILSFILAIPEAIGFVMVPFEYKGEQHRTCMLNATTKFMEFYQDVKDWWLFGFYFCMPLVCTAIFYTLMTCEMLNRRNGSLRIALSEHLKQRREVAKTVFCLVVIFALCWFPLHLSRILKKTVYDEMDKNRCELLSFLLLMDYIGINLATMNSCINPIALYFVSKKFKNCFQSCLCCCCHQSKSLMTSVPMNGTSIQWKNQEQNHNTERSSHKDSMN
Description: In vitro inhibitory potency for preventing ET-1 induced constriction of rat aortic rings (ETA receptor). It counts as functional. The conditions noted are these: read-out: pA2 (converted).

A value given as a limit tells only on which side of the number the result lay.

Take `CCS(=O)(=O)NCCOc1nc(C2CC2)nc(NS(=O)(=O)c2ccc(C)cn2)c1Oc1ccccc1OC`: the IC50 in test [1] amounted to 5660 nM; on Endothelin-1 receptor [2] it was 582 nM.

Consider `CCS(=O)(=O)NCCOc1nc(C2CC2)nc(NS(=O)(=O)c2ccc(C(C)C)cn2)c1Oc1ccccc1OC`, for which the IC50 in test [1] was determined as 397 nM; on Endothelin-1 receptor [2] it was 50 nM. The figures for the Kb (in test [3]; at Endothelin-1 receptor [4]) were 269 nM and 347 nM, respectively.

Consider `CCS(=O)(=O)NCCCOc1nc(-c2ncccn2)nc(NS(=O)(=O)c2ccc(C(C)(C)C)cc2)c1Oc1ccccc1OC`, for which the IC50 was found to be 101 nM in test [1] and 1590 nM on Endothelin-1 receptor [2].

`CCCS(=O)(=O)NCCOc1nc(C2CC2)nc(NS(=O)(=O)c2ccc(C)cn2)c1Oc1ccccc1OC`: the concentration for half-maximal inhibition (IC50) turned out to be 4670 nM in test [1] and 1320 nM at Endothelin-1 receptor [2].

The molecule `COc1ccccc1Oc1c(NS(=O)(=O)c2ccc(C(C)C)cn2)nc(C2CC2)nc1OCCCNS(=O)(=O)c1ccc(C)cc1` displayed an IC50 in test [1] of 19 nM. Moreover, the Kb was 49 nM in test [3] and 309 nM on Endothelin-1 receptor [4].

In the case of `CCS(=O)(=O)NCCCOc1nc(C2CC2)nc(NS(=O)(=O)c2ccc(C(C)C)cn2)c1Oc1ccccc1OC`, the figures for the Kb (in test [3]; at Endothelin-1 receptor [4]) were 269 nM and 105 nM, respectively.

With `CCCS(=O)(=O)NCCOc1nc(C2CC2)nc(NS(=O)(=O)c2ccc(C(C)C)cn2)c1Oc1ccccc1OC`, the IC50 in test [1] was determined as 84 nM; on Endothelin-1 receptor [2], 80 nM. Also, the figures for the Kb (in test [3]; at Endothelin-1 receptor [4]) were 363 nM and 288 nM, respectively.

With `COc1ccccc1Oc1c(NS(=O)(=O)c2ccc(C)cn2)nc(-c2cc(OC)c(OC)c(OC)c2)nc1OCCNS(=O)(=O)c1cccs1`, the figures for the IC50 (in test [1]; on Endothelin-1 receptor [2]) were 351 nM and 2770 nM, respectively.

Turning to `COc1ccccc1Oc1c(NS(=O)(=O)c2ccc(C)cn2)nc(Cc2ccc3c(c2)OCO3)nc1OCCNS(=O)(=O)c1cccs1`, in test [1], the IC50 was determined as 2110 nM.

In the case of `CCS(=O)(=O)NCCOc1nc(-c2ncccn2)nc(NS(=O)(=O)c2ccc(C(C)(C)C)cc2)c1Oc1ccccc1OC`, the IC50 in test [1] amounted to 873 nM; on Endothelin-1 receptor [2] it was 487 nM.

As to `CCS(=O)(=O)NCCOc1nc(N2CCOCC2)nc(NS(=O)(=O)c2ccc(C(C)C)cn2)c1Oc1ccccc1OC`, the IC50 was found to be 122 nM in test [1] and 19 nM at Endothelin-1 receptor [2].

For `COc1ccccc1Oc1c(NS(=O)(=O)c2ccc(C(C)C)cn2)nc(N2CCOCC2)nc1OCCCNS(=O)(=O)c1ccc(C)cc1`, the IC50 in test [1] came out at 24 nM; on Endothelin-1 receptor [2], 116 nM. Also, the figures for the Kb (in test [3]; at Endothelin-1 receptor [4]) were 107 nM and 4790 nM, respectively.

`COc1ccccc1Oc1c(NS(=O)(=O)c2ccc(C(C)(C)C)cc2)nc(-c2ncccn2)nc1OCCNS(=O)(=O)c1cccs1` displayed an IC50 in test [1] of 16 nM.

For `COc1ccccc1Oc1c(NS(=O)(=O)c2ccc(C(C)C)cn2)nc(C2CC2)nc1OCCCNS(=O)(=O)c1cccs1`, the IC50 in test [1] was found to be 4 nM. Also, the Kb was 9.12 nM in test [3] and 120 nM on Endothelin-1 receptor [4].

On to `CCCS(=O)(=O)NCCCOc1nc(C2CC2)nc(NS(=O)(=O)c2ccc(C(C)C)cn2)c1Oc1ccccc1OC`, for which the results for the Kb (in test [3]; at Endothelin-1 receptor [4]) were 69.2 nM and 245 nM, respectively.

`CCCS(=O)(=O)NCCOc1nc(-c2cc(OC)c(OC)c(OC)c2)nc(NS(=O)(=O)c2ccc(C(C)C)cn2)c1Oc1ccccc1OC` yielded an IC50 in test [1] of 24 nM. Also, the Kb in test [3] was 33.1 nM; at Endothelin-1 receptor [4], 3160 nM.

Take `COc1ccccc1Oc1c(NS(=O)(=O)c2ccc(C(C)C)cn2)nc(-c2cc(OC)c(OC)c(OC)c2)nc1OCCNS(=O)(=O)c1ccc(C)cc1`: the IC50 in test [1] amounted to 4 nM. Also, the Kb on Endothelin-1 receptor [4] is over 10000 nM.

`COc1ccccc1Oc1c(NS(=O)(=O)c2ccc(C(C)C)cn2)nc(-c2cc(OC)c(OC)c(OC)c2)nc1OCCNS(=O)(=O)c1cccs1` showed an IC50 in test [1] of 7 nM. Moreover, the Kb in test [3] was 38.9 nM.

`COc1ccccc1Oc1c(NS(=O)(=O)c2ccc(C)cn2)nc(-c2ccncc2)nc1OCCNS(=O)(=O)c1ccc(C)cc1` came in with an IC50 in test [1] of 1540 nM.

Consider `COc1ccccc1Oc1c(NS(=O)(=O)c2ccc(C)cn2)nc(C2CC2)nc1OCCNS(=O)(=O)c1cccs1`, for which the IC50 was 8240 nM in test [1] and 1850 nM at Endothelin-1 receptor [2].

In the case of `COc1ccccc1Oc1c(NS(=O)(=O)c2ccc(C(C)(C)C)cc2)nc(-c2ncccn2)nc1OCCCNS(=O)(=O)c1cccs1`, the figures for the IC50 (in test [1]; on Endothelin-1 receptor [2]) were 4 nM and 86 nM, respectively.

With `CCCS(=O)(=O)NCCOc1nc(N2CCOCC2)nc(NS(=O)(=O)c2ccc(C(C)C)cn2)c1Oc1ccccc1OC`, the figures for the Kb (in test [3]; on Endothelin-1 receptor [4]) were 240 nM and 832 nM, respectively.

With `COc1ccccc1Oc1c(NS(=O)(=O)c2ccc(C(C)C)cn2)nc(N2CCOCC2)nc1OCCNS(=O)(=O)c1ccc(C)cc1`, the IC50 was 9 nM in test [1] and 1380 nM on Endothelin-1 receptor [2].

Consider `CCCS(=O)(=O)NCCOc1nc(N2CCOCC2)nc(NS(=O)(=O)c2ccc(C)cn2)c1Oc1ccccc1OC`, for which the IC50 came to 931 nM in test [1] and 51 nM at Endothelin-1 receptor [2].

Regarding `COc1ccccc1Oc1c(NS(=O)(=O)c2ccc(C(C)(C)C)cc2)nc(C2CC2)nc1OCCCNS(=O)(=O)c1cccs1`, the IC50 in test [1] is 2 nM; on Endothelin-1 receptor [2] it was 14 nM.

On to `COc1ccccc1Oc1c(NS(=O)(=O)c2ccc(C)cn2)nc(-c2ccncc2)nc1OCCNS(=O)(=O)c1cccs1`, for which the figures for the IC50 (in test [1]; at Endothelin-1 receptor [2]) were 3680 nM and 2840 nM, respectively.
